US20180185520A1, “COLLAGEN IMAGING COMPOSTIONS” (Collagen Medical, LLC, priority 2015, published 2018)

Columns and labels:
[1] = system: liver fibrosis; assay: Detection of liver fibrosis by MRI, rat bile duct ligation model; format: in vivo, male CD rats; conditions: 10 μmol/kg i.v., 30 minutes, 1.5 tesla
Source text: Liver fibrosis was induced in male CD rats (n=8) by ligation of the common bile duct (Charles River Labs, Wilmington, Mass.). Control animals (n=12) underwent a control procedure. Rats were imaged 19 days following ligation. Rats were imaged on a 1.5-tesla clinical MRI scanner (Siemens Healthcare, Malvern, Pa.) using a home-built, transmit-receive solenoid coil. Animals were anesthetized with 1-2% isoflurane and respiration rate was monitored with a small animal physiological monitoring system (SA Instruments, Inc., Stony Brook, N.Y.). Respiratory-gated, 3D Inversion Recovery (IR) Fast Low Angle Shot (FLASH) images were acquired prior to and 30 minutes following intravenous administration of 10 μmol/kg COMPOUND ID NO. 1. A non-selective inversion pulse was used and images were acquired with inversion recovery times of 50, 100, 200, 250, 300, 400 and 1000 ms. Image acquisition parameters consisted of an echo time of TE=2.44 ms, field-of-view FOV=120×93 mm, matrix=192×150 (0.625 mm in-plane resolution), slice thickness=0.6 mm, and 36 image slices. […] Following imaging, animals were sacrificed and liver tissue was subjected to pathologic scoring of fibrosis and analyzed for hydroxyproline content. […]
Liver fibrosis was detected by MRI by measuring the change in liver R1 after injection of COMPOUND ID NO. […]

[2] = target: T1, rat collagen (acid soluble, type I, rat tail) (Rattus norvegicus, UniProt P02454+P02466); assay: Collagen binding assay, dried rat collagen in microtiter plate; conditions: 37° C., pH 7.4
T1 construct: purchased Millipore Inc 08-115; host or cells: rat tail
Experimental: 10 ml of a 3.79 mg/mL solution of rat collagen (acid soluble, type I, rat tail, Millipore Inc, cat#08-115) is dialyzed against 10 mM Phosphate (NaH2PO4), pH 4.2 at 4° C. with three changes of the dialysis buffer.
Ice-cold 1×PBS pH 10.8 is added to the collagen solution for a final collagen concentration of 10 μM, pH 7.4. Collagen solutions are gelled and dried down in the wells of a 96 well microtiter plate (Corning Polystyrene Flat Bottom, cat#3641). 70 μl of 10 μM collagen is aliquoted into each well in every other lane in the plate (48 wells) and the plate is incubated at 37° C. for 18 hours to form a gel and evaporate to dryness. […] The final well content of gelled collagen is measured by determination of hydroxyproline and is around 180 μg/ml.
(§1) a serial dilution of 0.2 μM-30 μM of the peptide chelate is prepared in PBS, pH 7.4 ([…], of solution for each concentration). […] The concentration of free, unbound compound in the sample supernatants and the concentration of compound in the reserved (total) sample are determined by ICP-MS (Agilent 7500, gadolinium concentration). The concentration of compound bound to collagen is determined as [bound]=[total]−[unbound].
(§2) The binding of compounds to human, rat and dog collagen (5 μM) was measured over the concentration range 0.2-5 μM of Comp ID Nos.: 1-4. […]

[3] = system: liver fibrosis; assay: Detection of liver fibrosis by MRI, mouse CCl4 model; format: in vivo, C57BL/6 male mice; conditions: 10 μmol/kg i.v., out to 45 minutes, 7T
Experimental: Strain C57BL/6 male mice at approximately 3 weeks of age were purchased from Jackson Laboratory (Bar Harbor, Me.). All mice were randomly assigned to two groups: a control group (n=3) and a CCl4 group (n=8). Mice were treated three times a week for 10 weeks with either 0.04 mL of a 40 percent solution of CCl4 (Sigma, St. Louis, Mo.) in olive oil or with vehicle (olive oil only) by oral gavage. Animals from both models were imaged one week after the last injection. Mice were imaged on a 7T pre-clinical […] scanner (Bruker Biospin, Billerica, Mass.). Mice were imaged before and immediately after a 10 μmol/kg intravenous injection of COMPOUND ID NO. 1 and imaging was repeated out to 45 minutes post-injection. Following imaging, animals were sacrificed 50 min post COMPOUND ID NO. 1 injection and sections of each of the liver lobes were taken for gadolinium analysis by ICP-MS, hydroxyproline (Hyp) determination, and histology (Sirius Red staining). From the MRI data, the contrast to noise ratio (CNR, where CNR=(signal liver-signal muscle)/noise) was calculated for the liver before and at repeated time points after 10 μmol/kg injection of the COMPOUND ID NO. 1. After probe COMPOUND ID NO. […] Plots of CNR as a function of time post injection were made and the area under this CNR vs time curve was calculated. […] 1 in liver as assessed by gadolinium measurement (R^2=0.83). […]

[4] = target: T2, human type I collagen (Homo sapiens, UniProt P02452+P08123); assay: Collagen binding assay, dried human collagen in microtiter plate; conditions: 37° C., pH 7.4
T2 construct: purchased Advanced Biomatrix 5007-A
T2 sequence (P02452 162-1218 limits assumed): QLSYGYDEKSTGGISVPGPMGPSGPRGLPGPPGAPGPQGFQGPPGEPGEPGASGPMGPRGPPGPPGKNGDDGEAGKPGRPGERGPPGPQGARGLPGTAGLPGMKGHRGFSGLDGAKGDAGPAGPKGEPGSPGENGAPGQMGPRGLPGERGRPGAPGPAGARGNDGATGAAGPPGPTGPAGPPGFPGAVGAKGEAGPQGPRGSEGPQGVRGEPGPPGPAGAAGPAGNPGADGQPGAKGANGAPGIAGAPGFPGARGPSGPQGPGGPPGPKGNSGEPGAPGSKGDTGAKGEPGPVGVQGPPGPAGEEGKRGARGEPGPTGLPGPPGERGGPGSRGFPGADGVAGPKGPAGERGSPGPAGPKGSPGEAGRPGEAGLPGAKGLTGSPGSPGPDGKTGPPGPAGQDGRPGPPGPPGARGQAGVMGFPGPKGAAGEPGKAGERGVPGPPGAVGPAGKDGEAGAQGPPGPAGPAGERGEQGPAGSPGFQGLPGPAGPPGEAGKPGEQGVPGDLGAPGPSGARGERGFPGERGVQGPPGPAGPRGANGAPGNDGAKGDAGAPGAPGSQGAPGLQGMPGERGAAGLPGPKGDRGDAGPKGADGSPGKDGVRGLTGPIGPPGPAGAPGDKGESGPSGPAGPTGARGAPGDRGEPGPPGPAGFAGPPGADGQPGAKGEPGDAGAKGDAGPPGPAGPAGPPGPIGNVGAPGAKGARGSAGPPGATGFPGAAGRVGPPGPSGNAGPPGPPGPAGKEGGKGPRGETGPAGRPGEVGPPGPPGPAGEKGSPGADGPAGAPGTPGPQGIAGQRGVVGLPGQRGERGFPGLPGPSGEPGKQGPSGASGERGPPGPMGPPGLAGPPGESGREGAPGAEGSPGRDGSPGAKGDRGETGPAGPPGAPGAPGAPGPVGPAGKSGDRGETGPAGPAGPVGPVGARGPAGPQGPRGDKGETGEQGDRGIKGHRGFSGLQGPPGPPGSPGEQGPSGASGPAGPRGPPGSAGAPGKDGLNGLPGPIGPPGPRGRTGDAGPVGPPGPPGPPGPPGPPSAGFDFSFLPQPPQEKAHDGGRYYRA
T2 sequence (P08123 80-1119 limits assumed): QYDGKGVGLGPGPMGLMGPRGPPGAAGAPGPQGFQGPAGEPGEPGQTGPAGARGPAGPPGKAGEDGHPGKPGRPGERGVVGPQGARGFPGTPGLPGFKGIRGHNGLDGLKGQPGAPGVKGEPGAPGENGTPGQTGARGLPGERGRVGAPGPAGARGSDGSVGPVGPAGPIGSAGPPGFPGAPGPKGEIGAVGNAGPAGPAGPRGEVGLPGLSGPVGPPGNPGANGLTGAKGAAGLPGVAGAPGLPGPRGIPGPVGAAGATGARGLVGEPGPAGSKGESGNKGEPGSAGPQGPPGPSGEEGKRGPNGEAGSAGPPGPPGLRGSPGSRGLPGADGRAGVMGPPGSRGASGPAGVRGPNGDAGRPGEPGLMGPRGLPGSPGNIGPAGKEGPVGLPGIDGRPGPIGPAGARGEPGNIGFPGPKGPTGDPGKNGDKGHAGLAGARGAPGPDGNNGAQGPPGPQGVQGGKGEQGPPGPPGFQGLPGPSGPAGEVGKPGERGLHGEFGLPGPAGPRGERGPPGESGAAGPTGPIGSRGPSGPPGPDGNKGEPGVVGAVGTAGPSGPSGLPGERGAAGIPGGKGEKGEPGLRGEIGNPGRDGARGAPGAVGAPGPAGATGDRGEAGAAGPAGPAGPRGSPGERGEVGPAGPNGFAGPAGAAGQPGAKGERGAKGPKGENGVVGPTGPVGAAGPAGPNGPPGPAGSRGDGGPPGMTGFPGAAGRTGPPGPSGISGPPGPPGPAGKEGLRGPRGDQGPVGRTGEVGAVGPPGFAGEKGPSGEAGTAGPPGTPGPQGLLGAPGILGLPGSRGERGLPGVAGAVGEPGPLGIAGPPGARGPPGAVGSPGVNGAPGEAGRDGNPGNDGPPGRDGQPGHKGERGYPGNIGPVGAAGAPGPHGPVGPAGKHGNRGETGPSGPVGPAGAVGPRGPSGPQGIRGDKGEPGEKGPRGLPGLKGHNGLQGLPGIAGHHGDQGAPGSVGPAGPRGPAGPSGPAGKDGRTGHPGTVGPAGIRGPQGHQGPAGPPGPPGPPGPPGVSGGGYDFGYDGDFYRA
Experimental: 10 ml of a solution of 3 mg/ml of human type I collagen (VitroCol solution, Advanced Biomatrix, cat#5007-A) is dialyzed against 10 mM Phosphate (NaH2PO4), pH 4.2 at 4° C. with three changes of the dialysis buffer. The protein concentration is determined by liquid chromatography determination of hydroxyproline (P. Hutson, J. Chromatogr. B, 791 (2003) 427-430).
Ice-cold 1×PBS pH 10.8 is added to the collagen solution for a final collagen concentration of 10 μM, pH 7.4. Collagen solutions are gelled and dried down in the wells of a 96 well microtiter plate (Corning Polystyrene Flat Bottom, cat#3641). […] The final well content of gelled collagen is measured by determination of hydroxyproline and is around 180 μg/ml.
as §1, §2

With `CC(C)C[C@H](NC(=O)[C@@H]1CSSC[C@H](NC(=O)[C@H](Cc2c[nH]cn2)NC(=O)[C@H](Cc2c[nH]c3ccccc23)NC(=O)[C@H](CCCCNC(=O)CC[C@H](C(=O)O)N2CCN(CC(=O)O)CCN(CC(=O)O)CCN(CC(=O)O)CC2)NC(=O)CNC(=O)CC[C@H](C(=O)O)N2CCN(CC(=O)O)CCN(CC(=O)O)CCN(CC(=O)O)CC2)C(=O)N[C@@H]([C@@H](C)O)C(=O)N[C@@H]([C@@H](C)O)C(=O)N[C@@H](CCCCNC(=O)CC[C@H](C(=O)O)N2CCN(CC(=O)O)CCN(CC(=O)O)CCN(CC(=O)O)CC2)C(=O)N[C@@H](Cc2ccccc2)C(=O)N2CCC[C@H]2C(=O)N[C@@H](Cc2c[nH]cn2)C(=O)N[C@@H](Cc2c[nH]cn2)C(=O)N[C@@H](Cc2ccc(O)cc2)C(=O)N1)C(=O)N[C@@H](Cc1ccc(O)cc1)C(=O)N[C@@H](Cc1ccc(-c2ccccc2)cc1)C(N)=O` [Compound ID No. 1] the “ΔR1 (change in liver R1 after injection)” value ([1]; BDL animals, 19 days after ligation) was 0.49 ± 0.22 s⁻¹, the “ΔR1 (change in liver R1 after injection)” value ([1]; sham animals) was 0.15 ± 0.14 s⁻¹ and the Kd [2] was 21.1 µM. For the same compound, the “area under the CNR vs time curve (liver)” value ([3]; CCl4 treated mice) was 1447±192, the “area under the CNR vs time curve (liver)” value ([3]; vehicle (olive oil) treated control mice given the probe) was 889±173 and the Kd [4] was 3.8 µM.
